Among the test systems are CAKI-1 renal; IGROV1 ovarian; SK-MEL-2 melanoma; COLO 205 colon; OVCAR-3 ovarian; SF-539 CNS; HT29 colon; SK-MEL-5 melanoma; SK-MEL-28 melanoma; MOLT-4 leukemia.
Assay in all cases: growth of human tumour cells (NCI), 48 h

Molecules are shown by their SMILES. Where “and” joins values, the source holds several entries; their conditions need not be identical. Equal values may be shown once.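 Cultured in 96-well plates, cells were exposed to test compound for 48 hours across five concentrations. At the GI50, growth is halved. Definition used: TGI = concentration required for complete inhibition of growth.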 Where only a bound is given, the exact number is not on record here.

`Cc1ccc2nc(NC(=O)C(=O)C(C(=O)c3ccc4ccccc4c3)C3OC(=O)c4ccccc43)sc2c1` (centres undefined): the TGI with CAKI-1 renal is 52.3 µM; with IGROV1 ovarian, 44.3 µM; in the experiment on SK-MEL-2 melanoma, 29.3 µM; with COLO 205 colon, 34.6 µM; in the experiment with OVCAR-3 ovarian it was over 100 µM; in the experiment on SF-539 CNS it was 9.21 µM. The TGI is 31.3 µM in the experiment on HT29 colon, 22.6 µM in the experiment on SK-MEL-5 melanoma and 19.3 µM in the experiment on SK-MEL-28 melanoma.
Consider `Oc1ccc2ccccc2c1CCc1c(O)ccc2ccccc12`, for which the TGI came to 20.5 µM with CAKI-1 renal; 29.1 µM with COLO 205 colon; 17.4 µM in the experiment with OVCAR-3 ovarian; 30.3 µM in the experiment with SF-539 CNS; 18.6 µM in the experiment with HT29 colon; 25.7 µM in the experiment on SK-MEL-5 melanoma. The compound also showed a TGI in the experiment with SK-MEL-28 melanoma of 22.6 µM.
Regarding `CC(Oc1cc2oc(=O)cc(-c3ccccc3)c2cc1Cl)C(=O)O` (centres undefined), the TGI with CAKI-1 renal, with IGROV1 ovarian, with COLO 205 colon, with OVCAR-3 ovarian, in the experiment with SF-539 CNS and in the experiment with HT29 colon was over 100 µM each time. Also, the TGI in the experiment on MOLT-4 leukemia, in the experiment with SK-MEL-5 melanoma and with SK-MEL-28 melanoma was over 100 µM each time.
Turning to `C#CCN(N=O)C(=O)NC(CCCCNC(=O)OCc1ccccc1)C(=O)OCc1ccccc1` (centres undefined), the TGI is over 100 µM with IGROV1 ovarian; over 100 µM in the experiment with SK-MEL-2 melanoma; 96.6 µM with COLO 205 colon; over 100 µM in the experiment with OVCAR-3 ovarian; 46.9 µM in the experiment on HT29 colon; 41.5 µM in the experiment with MOLT-4 leukemia. In the experiment on SK-MEL-28 melanoma, this compound showed a TGI of 77.6 µM.
Regarding `CCCCC(C(=O)C(=O)Nc1ccc(C)cc1C)C(=O)C(C)C` (centres undefined), the TGI in the experiment on CAKI-1 renal, in the experiment with IGROV1 ovarian, in the experiment with SK-MEL-2 melanoma, with OVCAR-3 ovarian, with SF-539 CNS and in the experiment with HT29 colon was over 100 µM in each case. Also, the TGI in the experiment with MOLT-4 leukemia, with SK-MEL-5 melanoma and in the experiment with SK-MEL-28 melanoma was over 100 µM each time.
On to `O=C1OC(CC(=O)c2ccc(F)cc2)C(Cl)=C1Cl` (centres undefined), for which the TGI in the experiment on CAKI-1 renal was determined as 92.8 µM; with IGROV1 ovarian it was 72.7 µM; in the experiment on SK-MEL-2 melanoma it was 45 µM; in the experiment with OVCAR-3 ovarian, 38.7 µM; in the experiment on SF-539 CNS, 35.2 µM; in the experiment with HT29 colon, 32.1 µM. For the same compound, the TGI in the experiment with MOLT-4 leukemia is over 100 µM; with SK-MEL-5 melanoma it was 60.4 µM; with SK-MEL-28 melanoma, over 100 µM.
For the compound `NC(Cc1ccccc1)C(=O)OCN1C(=O)C2C3C=CC(C2C1=O)C1C2C(=O)N(COC(=O)C(N)Cc4ccccc4)C(=O)C2C31` (centres undefined), the GI50 is 37.8 µM and 77.2 µM in the experiment on CAKI-1 renal; 24.3 µM and 12 µM in the experiment on MOLT-4 leukemia. Moreover, the TGI in the experiment on CAKI-1 renal is over 100 µM; with IGROV1 ovarian it was > 100 µM and 70.7 µM; in the experiment with COLO 205 colon, 32.8 µM and 32.2 µM; in the experiment with OVCAR-3 ovarian it was 87 µM and 67.7 µM; with SF-539 CNS it was 44.8 µM and 44.6 µM; with HT29 colon, over 100 µM. Besides, the TGI is 52 µM and 42.9 µM in the experiment on MOLT-4 leukemia; 34.4 µM and 32.9 µM with SK-MEL-5 melanoma; 44.4 µM and 36 µM in the experiment on SK-MEL-28 melanoma.
Turning to `Nc1nc(N)c2c(n1)NC(c1sc(Cl)nc1Cl)CC(c1ccccc1)=N2` (centres undefined), the GI50 with CAKI-1 renal was 3.28 µM; in the experiment on IGROV1 ovarian, 7.08 µM; with SK-MEL-2 melanoma, 2.98 µM; in the experiment with COLO 205 colon, 4.18 µM; in the experiment on OVCAR-3 ovarian, 3.6 µM; in the experiment on SF-539 CNS it was 2.69 µM. The GI50 with MOLT-4 leukemia is 4.06 µM; in the experiment with SK-MEL-5 melanoma it was 3.69 µM; with SK-MEL-28 melanoma, 4.26 µM. In addition, the TGI in the experiment with CAKI-1 renal came to 19.6 µM; with IGROV1 ovarian, 23.4 µM; with SK-MEL-2 melanoma, 10.9 µM; in the experiment on COLO 205 colon it was 15.4 µM; in the experiment with OVCAR-3 ovarian, 13.7 µM; in the experiment with SF-539 CNS, 9.97 µM. For the same compound, the TGI in the experiment with MOLT-4 leukemia came out at 20.8 µM; with SK-MEL-5 melanoma, 13.9 µM; with SK-MEL-28 melanoma it was 17.8 µM.
Regarding `COc1ccccc1-n1cnc(N)c1C(=O)c1cc(OC)c(OC)c(OC)c1`, the GI50 in the experiment with CAKI-1 renal is 3.12 µM; in the experiment with IGROV1 ovarian, 3.88 µM; in the experiment on COLO 205 colon, 4.5 µM; in the experiment on OVCAR-3 ovarian, 3.34 µM; in the experiment with SF-539 CNS it was 2.42 µM; in the experiment with HT29 colon, 3.41 µM. For the same compound, the GI50 in the experiment on MOLT-4 leukemia was 4.82 µM; in the experiment on SK-MEL-5 melanoma, 3.13 µM; with SK-MEL-28 melanoma, 9.62 µM. The TGI in the experiment with CAKI-1 renal was over 100 µM; in the experiment on IGROV1 ovarian it was over 100 µM; in the experiment with COLO 205 colon, 40.3 µM; in the experiment on OVCAR-3 ovarian it was 19.3 µM; with SF-539 CNS, 9.12 µM; in the experiment on HT29 colon, over 100 µM. For the same compound, the TGI in the experiment with MOLT-4 leukemia, in the experiment with SK-MEL-5 melanoma and with SK-MEL-28 melanoma was over 100 µM in each case.
Consider `O=C(NC1CCN(Cc2ccccc2)CC1)c1cc(-c2cccnc2)nc2ccc(Cl)cc12`, for which the GI50 is 3.24 µM in the experiment on CAKI-1 renal; 16.1 µM in the experiment on IGROV1 ovarian; 5.28 µM with COLO 205 colon; 11.3 µM in the experiment with OVCAR-3 ovarian; 11.9 µM in the experiment with SF-539 CNS; 3.05 µM with MOLT-4 leukemia. The GI50 in the experiment with SK-MEL-5 melanoma is 3.91 µM; in the experiment with SK-MEL-28 melanoma it was 16.3 µM. Besides, the TGI in the experiment with CAKI-1 renal is 19.1 µM; with IGROV1 ovarian it was 81.8 µM; in the experiment with COLO 205 colon, over 100 µM; in the experiment with OVCAR-3 ovarian it was 28 µM; in the experiment on SF-539 CNS it was 24.2 µM; in the experiment on MOLT-4 leukemia it was 9.82 µM. The TGI in the experiment on SK-MEL-5 melanoma and in the experiment with SK-MEL-28 melanoma was over 100 µM in each case.
Regarding `O/N=C1/CCC/C1=C\c1ccccc1`, the TGI with CAKI-1 renal, with IGROV1 ovarian, with SK-MEL-2 melanoma, with COLO 205 colon, in the experiment on OVCAR-3 ovarian and in the experiment on SF-539 CNS was over 100 µM each time. The TGI in the experiment on MOLT-4 leukemia, in the experiment on SK-MEL-5 melanoma and in the experiment with SK-MEL-28 melanoma was over 100 µM in each case.
Regarding `COc1ccc2[nH]c(Cl)c(/C=C3/C(=O)Nc4ccccc43)c2c1`, the GI50 is 0.673 µM in the experiment with CAKI-1 renal; 0.724 µM with IGROV1 ovarian; 1.2 µM in the experiment with SK-MEL-2 melanoma; 0.427 µM in the experiment with COLO 205 colon; 0.537 µM in the experiment on OVCAR-3 ovarian; 0.483 µM in the experiment on SF-539 CNS. Also, the GI50 was 0.316 µM in the experiment on HT29 colon, 0.0902 µM in the experiment with SK-MEL-5 melanoma and 0.459 µM with SK-MEL-28 melanoma. Also, the TGI with CAKI-1 renal is 1.75 µM; in the experiment with IGROV1 ovarian it was 20.7 µM; with SK-MEL-2 melanoma, over 30.8 µM; in the experiment with COLO 205 colon, 3.25 µM; with OVCAR-3 ovarian, 1.07 µM; with SF-539 CNS it was 0.731 µM. In addition, the TGI in the experiment on SK-MEL-5 melanoma was determined as 0.722 µM; in the experiment with SK-MEL-28 melanoma, 5.47 µM.

Values taken from PubChem BioAssay (NCI).
